Measured values from article PMC12264943, “Identification of New Human P2X7 Antagonists Using Ligand- and Structure-Based Virtual Screening” (Journal of Chemical Information and Modeling, 2025).
Like-named read-outs stand apart in the source and are kept apart here.

Target: T1, hP2X7 (Homo sapiens, UniProt Q99572)
T1 construct: expressed in transfected cells; host or cells: HEK-293, stably transfected (gift of E. Adinolfi's group, Ferrara University)
T1 sequence (Q99572 1-595): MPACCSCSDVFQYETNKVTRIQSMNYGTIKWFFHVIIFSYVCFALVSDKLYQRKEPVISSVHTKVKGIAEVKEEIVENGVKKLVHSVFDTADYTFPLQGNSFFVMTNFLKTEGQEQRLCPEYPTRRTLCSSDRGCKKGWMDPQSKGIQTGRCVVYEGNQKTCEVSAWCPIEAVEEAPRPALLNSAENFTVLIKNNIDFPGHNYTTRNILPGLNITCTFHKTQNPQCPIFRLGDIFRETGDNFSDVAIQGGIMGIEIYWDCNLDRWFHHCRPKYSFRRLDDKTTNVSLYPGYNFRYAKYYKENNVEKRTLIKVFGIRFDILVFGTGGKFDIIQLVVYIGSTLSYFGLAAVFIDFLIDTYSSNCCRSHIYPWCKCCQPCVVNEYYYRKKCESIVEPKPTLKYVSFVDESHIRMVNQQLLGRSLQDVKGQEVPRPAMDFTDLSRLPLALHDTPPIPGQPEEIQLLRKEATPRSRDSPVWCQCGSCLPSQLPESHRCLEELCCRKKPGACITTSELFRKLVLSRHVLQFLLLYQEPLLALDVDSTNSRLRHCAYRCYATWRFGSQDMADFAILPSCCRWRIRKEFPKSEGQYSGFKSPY
Test: YO-PRO 1 dye uptake assay, HEK-293 cells stably transfected with hP2X7
Format: cell-based
Conditions: for EC50: read-out: ATP EC50
Protocol: Astrocytoma 1321 N1 (established by Dr. Gaia Pasqualetto) and HEK-293 (kindly gifted by E. Adinolfi’s group, Ferrara University) both stably transfected with hP2X7, were used to assess the activity of the small molecules selected from the VS. Cells were maintained in DMEM:F12 (PanBiotech) supplemented with 10% FBS, 1% pen-strep, and 150 μg/mL G418 (PanBiotech).
Astrocytoma 1321 N1 cells (2–2.5 × 10^4 cells/well) and HEK-293 cells (4–5 × 10^4 cells/well) expressing hP2X7 were seeded in poly-L-lysine-coated 96-well plates (Sarstedt) 24 h before the experiment. YO-PRO 1 dye was prepared at 5 μM in extracellular solution with low divalent cations (ECS-LD) buffer (147 mM NaCl, 10 mM HEPES, 13 mM glucose, 0.2 mM CaCl2, 2 mM KCl, pH 7.4) and added to cells after washing them with Dulbecco’s phosphate- buffered saline (DPBS) (PanBiotech) and incubated for 20 min at 37 °C. ATP-induced dye uptake, mediated by hP2X7 activation, was monitored using a Clariostar plate reader (excitation: 485 nm; emission: 538 nm) for 30 cycles (75–150 s/cycle), after recording the baseline for five cycles. hP2X7 activation was quantified at cycle 10 by calculating the fluorescence intensity (FI) ratio (Δ(Fcycle 10–F cycle 1)/cycle time).
Compounds 2 and 9, identified as hits, were further evaluated for concentration-dependent inhibition (IC50) of hP2X7 activation in the YO-PRO 1 dye uptake assay using HEK-293 cells stably transfected with hP2X7 (unfortunately, at this point in the study, the stably transfected 1321N1 cells lost P2X7 expression, and we were unable to recover them from frozen aliquots), for which the ATP EC50 was determined to be approximately 1 mM (Supporting material Figure 4C). Seven concentrations (100 to 0.03 μM) were tested, but due to precipitation at 100 μM, the DMSO concentration was increased to 1%.
3 Inhibitory concentration response evaluation of compounds 2 and 9 and their groups highlighted for SAR. […] Compound activity was evaluated along a time of 20 min (75 s per cycle) after ATP addition (700 μM). The fluorescence intensity (FI) values of the first 10 cycles were considered for assessing their ability to inhibit hP2X7. The curves represent three biological replicates (n = 4 per replicate). Data were normalized by setting as 100% the FI recorded by hP2X7 HEK-293 cells incubated in 1% DMSO and stimulated by ATP, and as 0% the FI recorded by the same cells but treated with ECS-LD (assay buffer). (C) Highlighted areas of compound 2 considered for SAR study. R1 refers to the ethyl-benzyl group of the molecules, and R2 and R3 refer to the benzo-(1,3)-dioxol groups. (D) Highlighted areas of compound 9 considered for SAR study. We have defined the area highlighted in yellow and numbered as 1 as the “front” region of the molecule and the one colored in pink and named as 2 as the “back” region of the molecule. L highlights the urea and amide linkers of compounds 2 and 9, respectively.
4 Evaluation of compound 2 and 9 analogue activity using YO-PRO 1 and MPR assays. The activity of compound 2 (A and B) and 9 (C and D) analogues was evaluated in YO-PRO 1 (A and C) and MPR (B and D) assays. The compounds were tested at 10 μM and preincubated for either 20 (YO-PRO 1) or 30 min (MPR). The baseline was recorded for 5 cycles before ATP treatment (1 mM). Fluorescence was recorded for 25 (YO-PRO 1) or 5 min (MPR). The data were normalized by setting as 100% for the fluorescence measured from hP2X7 HEK-293 cells incubated with vehicle (0.1% DMSO) and treated with 1 mM ATP and 0% for the fluorescence recorded by the cells not treated with ATP. The data shown correspond to three independent biological replicates (3 technical replicates per experiment; error bars represent the SEM from the mean values of each biological replicate (n = 3)). The statistical analysis was performed with one-way Anova using Dunnett’s function (P**** < 0.0001; P*** < 0.0003; P** < 0.002; P* < 0.02).

[1] = YO-PRO 1 uptake, HEK-293 hP2X7 cells
[2] = Table 1, table names no assay, values of 2 and 9 are from YO-PRO 1 dye uptake in hP2X7 HEK-293 cells, read-out: IC50

Row | Hill Slope of ATP concentration-response curve [1] | EC50 (YO-PRO 1 uptake, HEK-293 hP2X7 cells, approximate value) [µM] | EC50 [1] [µM] | IC50 [2] [µM] | IC50 (YO-PRO 1 dye uptake, hP2X7 HEK-293 cells, 100 to 0.03 μM, 1% DMSO, read-out: IC50, inhibition of hP2X7 activation) [µM] | Compound
1 | 1.397 | ~1000 | 1140 ± 239 | – | – | Nc1ncnc2c1ncn2[C@@H]1O[C@H](COP(=O)(O)OP(=O)(O)OP(=O)(O)O)[C@@H](O)[C@H]1O [ATP, reference compound]
2 | – | – | – | 1.88 | 1.87 | O=C(NCCc1ccccc1)NC(Cc1ccc2c(c1)OCO2)Cc1ccc2c(c1)OCO2 [Compound 2]
3 | – | – | – | 6.82 | – | O=C(CSc1ccccc1C(=O)Nc1ccnn1Cc1cccnc1)Nc1ccc2c(c1)OCO2 [Compound 9]
